In test [1] the target is ERK2 (UniProt P28482). In kind it is biochemical. Also noted: Ki; other: ERK2; 1 mM ATP; kinact; T1/2; kinact/Ki; "the target Cys 172 residue. The settings on record: ERK2. As for the experimental part: (§1) In either case, the time dependent inactivation can be dampened by the presence of a competing substrate, in this case ATP.
(§2) For covalent inhibitors, plots of log (activity) versus time provide apparent first-order rate constants (kobsd) of enzyme activity loss. If these assays are performed at varying concentrations of inhibitor, a series of first-order plots is obtained and kobsd obtained at each inhibitor concentration. […] Such molecules may be competitive inhibitors but should not show time-dependent inactivation.
(§3) Inhibition progress curve analysis was performed using continuous, colorimetric, or fluorimetric assays. All experiments were done at 1 mM ATP, with the exception of KDR (at 5 mM ATP).
(§4) MEK1 assays were performed using pre-incubation experiments with radioactive [^32P]ATP and filter binding of product. All other kinases were analyzed using progress curve analysis from a continuous spectrophotometric assay.

Test [2] deals with ERK2 (UniProt P28482). The format is biochemical. Also on record: other: calculated for 0.1 μM for ~10 minutes; Ki; other: ERK2; kinact/Ki; "the target Cys 172 residue. The procedure: as §1, §2, §3, §4
The test system of test [3] is phosphorylated ERK in COLO829 cells (B-Raf V599E). The experiment in a line: Phospho-ERK Western blot in COLO829 cells. In kind it is cell-based, human. As for the experimental part:
The downstream effects of inhibition of a particular kinase (e.g. MEK) can be established by measuring the phosphorylation state of several proteins that require that kinase for phosphorylation (e.g. ERK1). Cultured cells are treated with hypothemycin or other lactone analogs described herein, and Western blots of cell extracts are probed with antibodies specific for the unmodified and phosphorylated forms of the downstream targets. As an example, the effects of hypothemycin on MEK1/2 can be determined by measuring the level of ERK1/2 phosphorylation.
Referring to FIG. 8, B-Raf V599E mutant melanoma cell line COLO829 was incubated with 1 microM hypothemycin for 2, 5, 10, 15, 30, and 60 minutes. The cells were then lysed and the proteins extracted. Equal amounts of total protein from each sample were separated by SDS-PAGE followed by electroblotting to a PVDF membrane. The levels of phospho-ERK present in each extract were visualized by incubation of the membrane with anti-phosphoERK antibody (Cell Signaling Technologies) followed by incubation with an HRP linked secondary antibody. Phospho-ERK containing bands were detected by autoradiography using the ECL Western detection kit (Amersham).

In test [4] the test system is ERK1/2 activation in human T cells. As to conditions: tested at 0.3 to 3 μM; cited from earlier work.
The target in test [5] is ERK2 (UniProt P28482). The format is biochemical. Also on record: "the target Cys 172 residue. The settings on record: Table 7. The procedure: as §1, §2, §3, §4
The target of test [6] is T1, MEK1 (Homo sapiens, UniProt Q02750). The test can be described thus: Time-dependent kinase inhibition kinetics (pre-incubation, [32P]ATP filter binding). In kind it is biochemical. As for the experimental part: Typically, one measures the increase in inhibition of protein kinase activity in the presence of inhibitor over time. In one method, aliquots of a “pre-incubation” reaction mixture containing enzyme and inhibitor are assayed for activity (initial velocities) over time; increased inhibition or decreased initial velocities will be observed over time as the Michael adduct forms (Walsh, C, Enzyme Reaction Mechanisms, W.H. Freeman & Co., 1979, pp 86-94). In a second method, the time dependent loss of activity is measured as “progress curves” that measure and analyze product formed (e.g. ADP) versus time (Morrison & Walsh, Adv. Enzymol Relat Areas Mol. Biol. 1988, 61, 201-301). In either case, the time dependent inactivation can be dampened by the presence of a competing substrate, in this case ATP.
MEK1 and many other protein kinases that can be targets of the compounds useful in the methods of the invention can be obtained commercially (Invitrogen; Carlsbad, Calif.) or prepared using standard molecular biology techniques. After activation by phosphorylation, they are assayed for their ability to phosphorylate a target kinase or surrogate substrate. For example, MEK1 can be assayed in a mixture containing MEK1 (30 nM) and ERK1 (2 μM), [γ-^32P]ATP (10 uM) and MgCl2 in Mops buffer pH 7.6. Phosphorylation can be measured by isolating [γ-^32P]-phosphorylated ERK1 on phosphocellulose paper, and counting radioactive product. Alternatively, a coupled enzyme system may be used in which a product of the kinase reaction, such as ADP, is measured by analysis with a secondary system that converts that product (e.g. ADP) to an easily measurable entity (e.g. NADH); often, such coupled systems can be measured by convenient spectrophotometry assays.
To measure time-dependent inhibition using the “pre-incubation method”, MEK1 (or other kinase) is incubated with varying amounts of the lactone inhibitor; […]. Aliquots are removed at various times, added to a solution containing substrates [γ-^32P]ATP, ERK1 (or other substrate), and the other components of the reaction, and initial rates are determined as a measure of remaining enzyme activity.
For covalent inhibitors, plots of log (activity) versus time provide apparent first-order rate constants (kobsd) of enzyme activity loss. If these assays are performed at varying concentrations of inhibitor, a series of first-order plots is obtained and kobsd obtained at each inhibitor concentration. To measure time-dependent inhibition using the “progress-curve method” (see references cited above and Kuzmic et al., Methods Enzymol 2004; 383: 366-81), ERK (or other kinase) is treated with varying amounts of the lactone inhibitor, and the formation of ADP is measured continuously by a coupled assay. […] Such molecules may be competitive inhibitors but should not show time-dependent inactivation.
Those of skill in the art will recognize that within the set of compounds useful in the methods of the invention, significant variability in specificity can be achieved, allowing one to identify optimal compounds for different applications. Inhibition progress curve analysis was performed using continuous, colorimetric, or fluorimetric assays. All experiments were done at 1 mM ATP, with the exception of KDR (at 5 mM ATP).
as §4

For test [7], the target named is T1, MEK1. The settings on record: cited from earlier work.

Where two headings read alike, the source gives them in different places.

Broadly, the kinact is the maximal first-order rate at which the target is inactivated. As usually defined, the kinact/KI is the maximal inactivation rate divided by the concentration that gives half of it.

T1 sequence (Q02750 whole entry): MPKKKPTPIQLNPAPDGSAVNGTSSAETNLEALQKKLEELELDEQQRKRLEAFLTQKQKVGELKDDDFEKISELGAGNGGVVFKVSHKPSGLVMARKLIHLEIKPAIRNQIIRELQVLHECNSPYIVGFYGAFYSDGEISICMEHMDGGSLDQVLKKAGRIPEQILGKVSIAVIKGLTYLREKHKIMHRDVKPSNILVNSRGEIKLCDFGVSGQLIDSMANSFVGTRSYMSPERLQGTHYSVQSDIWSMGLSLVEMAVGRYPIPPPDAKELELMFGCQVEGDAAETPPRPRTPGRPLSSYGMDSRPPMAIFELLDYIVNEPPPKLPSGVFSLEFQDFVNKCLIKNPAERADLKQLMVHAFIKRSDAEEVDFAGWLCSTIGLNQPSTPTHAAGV

Take `COc1cc(O)c2c(c1)[C@H]1O[C@@H]1C[C@H](O)[C@H](O)C(=O)/C=C\C[C@H](C)OC2=O` [Hypothemycin, hypothemycin]: the kinact/Ki is 1900 M⁻¹ s⁻¹ at ERK2 [1] and 1.9E+03 on ERK2 [2] (ERK2). The Ki on ERK2 [1] (1 mM ATP) is 2.7 µM; on ERK2 [2] (ERK2), 2 µM; on ERK2 [5] (read-out: ERK2 Inhibition Ki), 1.9 ± 1.1 µM; at MEK1 [6] (1 mM ATP), 0.019 µM. The kinact on ERK2 [1] (1 mM ATP) worked out at 0.005 s⁻¹; on MEK1 [6] (1 mM ATP, read-out: kinact), 0.003 s⁻¹. At ERK2 [2] (calculated for 0.1 μM for ~10 minutes), the ERK activity inhibited is given as less than 5%. The “time phosphorylated active ERK is absent after removal of the inhibitor” value in test [3] (COLO829 (and other BRAF mutant cells)) was roughly 24 h. The “ERK pathway after a 10 min. exposure” value in test [3] (COLO829, concentrations several-fold lower than Kd / sub-micromolar) is “completely shut down”. The “time to depletion of the phosphorylated form of ERK” value in test [3] (COLO829 cells, 1 microM hypothemycin, FIG. 8) was no more than 10 min. In addition, the “inhibition of the activation of ERK1/2” value in test [4] is reported as “inhibit”. Also, at ERK2 [5], the “ERK2 Inhibition kinact.” value is recorded as 5 ± 2 × 10^−3 sec^−1. In addition, the kinact/KI on MEK1 [6] amounted to 130000 M⁻¹ s⁻¹. For the same compound, the “potency as MEK1 inhibitor relative to L-783,277 (fold less potent)” value at MEK1 [7] is 4 fold.

These data come from patent US20100004234A1, “SPECIFIC KINASE INHIBITORS” (Kosan Biosciences Incorporated, priority 2004, published 2010).
